Experimental data: ChEMBL document CHEMBL5096171, “Synthesis and Biological Evaluation of PSMA Ligands with Aromatic Residues and Fluorescent Conjugates Based on Them” (J Med Chem, 2021); call rule not given here
Converted amounts (≈) assume the structure as drawn. Each block holds one molecule with its values, some of them ahead of it.

Experiments:
[1] = target: T1, Glutamate carboxypeptidase 2 (Homo sapiens, UniProt Q04609); assay: Inhibition of PSMA derived from human LNCaP cell lysate assessed as inhibition of NAAG hydrolysis incubated for 2 hrs in presence of NAAG by Amplex Red assay; assay type: subcellular
Target sequence in this assay (Q04609 whole entry): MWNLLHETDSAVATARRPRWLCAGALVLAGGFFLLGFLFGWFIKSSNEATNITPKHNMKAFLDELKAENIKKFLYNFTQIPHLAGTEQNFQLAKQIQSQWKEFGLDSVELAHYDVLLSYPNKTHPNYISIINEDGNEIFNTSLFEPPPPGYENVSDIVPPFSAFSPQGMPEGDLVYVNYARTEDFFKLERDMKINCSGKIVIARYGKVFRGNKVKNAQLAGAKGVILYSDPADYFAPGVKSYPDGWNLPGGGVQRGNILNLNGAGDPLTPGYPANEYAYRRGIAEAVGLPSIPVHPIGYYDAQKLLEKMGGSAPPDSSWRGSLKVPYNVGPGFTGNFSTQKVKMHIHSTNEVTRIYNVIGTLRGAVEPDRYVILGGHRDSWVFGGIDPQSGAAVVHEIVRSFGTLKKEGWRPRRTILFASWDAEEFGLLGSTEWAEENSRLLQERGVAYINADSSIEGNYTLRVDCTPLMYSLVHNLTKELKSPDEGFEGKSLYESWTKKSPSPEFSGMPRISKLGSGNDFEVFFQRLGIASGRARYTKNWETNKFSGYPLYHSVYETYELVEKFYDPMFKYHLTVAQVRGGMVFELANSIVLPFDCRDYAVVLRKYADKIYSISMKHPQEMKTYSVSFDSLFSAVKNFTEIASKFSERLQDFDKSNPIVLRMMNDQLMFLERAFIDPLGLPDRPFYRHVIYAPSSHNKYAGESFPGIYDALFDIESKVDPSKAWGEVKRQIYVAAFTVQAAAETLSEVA

[2] = Drug uptake in human PC-3 cells assessed as decrease in drug accumulation incubated for 1 hr in presence of (3S,7S,25S,28S)-33-Azido-25-benzyl-12-(3-chlorobenzyl)-28-(4-hydroxybenzyl)-5,13,20,23,26,29-hexaoxo-4,6,12,19,24,27,30-heptaazatritriacontane-1,3,7-tricarboxylic acid by flow cytometry; assay type: ADME, cell-based; conditions: pc-3, 1 h
[3] = Drug uptake in human 22Rv1 cells assessed as decrease in drug accumulation incubated for 1 hr in presence of (3S,7S,25S,28S)-33-Azido-25-benzyl-12-(3-chlorobenzyl)-28-(4-hydroxybenzyl)-5,13,20,23,26,29-hexaoxo-4,6,12,19,24,27,30-heptaazatritriacontane-1,3,7-tricarboxylic acid by flow cytometry; assay type: ADME, cell-based; conditions: cwr22r
[4] = Drug localisation in human LNCaP cells assessed as increase in fluorescent signal at 100 nM incubated for 2 hrs by Hoechst 33342 staining based fluorescence microscopy; assay type: ADME, cell-based; conditions: 0.1 µM
[5] = Drug uptake in human LNCaP cells assessed as fold decrease in drug accumulation incubated for 1 hr in presence of (3S,7S,25S,28S)-33-Azido-25-benzyl-12-(3-chlorobenzyl)-28-(4-hydroxybenzyl)-5,13,20,23,26,29-hexaoxo-4,6,12,19,24,27,30-heptaazatritriacontane-1,3,7-tricarboxylic acid by flow cytometry; assay type: ADME, cell-based
[6] = target: T1, Glutamate carboxypeptidase 2; assay: Inhibition of PMSA in human LNCaP cells assessed as increase in fluorescent signal upto 100 nM incubated for 1 hr by flow cytometry (reference value: 2.11%); assay type: cell-based
Target sequence in this assay (Q04609 whole entry, looked up): as the sequence (Q04609 whole entry) above

[7] = target: T1, Glutamate carboxypeptidase 2; assay: Inhibition of PMSA in human 22Rv1 cells assessed as increase in fluorescent signal upto 100 nM incubated for 1 hr by flow cytometry (reference value: 2.97%); assay type: cell-based
Target sequence in this assay (Q04609 whole entry, looked up): as the sequence (Q04609 whole entry) above

[8] = target: T1, Glutamate carboxypeptidase 2; assay: Inhibition of PMSA in human PC-3 cells assessed as increase in fluorescent signal upto 100 nM incubated for 1 hr by flow cytometry (reference value: 1.14%); assay type: cell-based
Target sequence in this assay (Q04609 whole entry, looked up): as the sequence (Q04609 whole entry) above

LNCaP = assay: Cytotoxicity against human LNCaP cells assessed as reduction in cell viability incubated for 5 days by MTT assay; assay type: functional; conditions: 120 h, time 5 day
PC-3 = assay: Cytotoxicity against human PC-3 cells assessed as reduction in cell viability incubated for 5 days by MTT assay; assay type: functional; conditions: PC-3, 120 h, time 5 day
[9] = Drug uptake in bloodstream of Balb/c nude mouse xenografted with human 22Rv1 cells at 0.449 mg/kg, IT administered as single dose measured after 24 hrs; assay type: ADME, organism-based, Blood, CWR22R; conditions: in vivo, other
[10] = Drug uptake in skin capillary of Balb/c nude mouse xenografted with human 22Rv1 cells at 0.449 mg/kg, IT administered as single dose measured after 24 hrs; assay type: ADME, organism-based, Skin of body, CWR22R; conditions: in vivo, other
[11] = Drug excretion in Balb/c nude mouse xenografted with human 22Rv1 cells assessed as non-specifically bound drug at 0.449 mg/kg, IT administered as single dose measured after 24 hrs; assay type: ADME, organism-based, CWR22R; conditions: in vivo, other
[12] = Drug excretion in […] at 0.449 mg/kg, IT administered as single dose measured after 24 hrs; assay type: ADME, organism-based, CWR22R; conditions: in vivo, other
[13] = Drug uptake in human 22Rv1 cells xenografted in Balb/c nude mouse assessed as amount of fluorescence intensity at 0.449 mg/kg, IT administered as single dose measured after 24 hrs by IVIS Spectrum CT analysis; assay type: ADME, organism-based, CWR22R; conditions: in vivo, other
[14] = Drug uptake in human PC-3 cells xenografted in Balb/c nude mouse assessed as amount of fluorescence intensity at 0.449 mg/kg, IT administered as single dose measured after 24 hrs by IVIS Spectrum CT analysis; assay type: ADME, organism-based; conditions: in vivo, other
[15] = n-Octanol/aqueous buffer distribution coefficient, log D of compound at pH 6.4 by shake flask method; assay type: physicochemical
[16] = Water solubility of the compound; assay type: physicochemical
[17] = Drug uptake in human LNCaP cells assessed as drug accumulation by measuring fluorescence signal at 4 uM incubated for 30 mins by flow cytometry; assay type: ADME, cell-based; conditions: 0.5 h
[18] = Drug uptake in human 22Rv1 cells assessed as drug accumulation by measuring fluorescence signal at 4 uM incubated for 30 mins by flow cytometry; assay type: ADME, cell-based; conditions: cwr22r, 0.5 h
[19] = Drug uptake in human PC-3 cells assessed as drug accumulation by measuring fluorescence signal at 4 uM incubated for 30 mins by flow cytometry; assay type: ADME, cell-based; conditions: pc-3, 0.5 h
[20] = Drug uptake in human LNCaP cells assessed as decrease in drug accumulation incubated for 1 hr in presence of (3S,7S,25S,28S)-33-Azido-25-benzyl-12-(3-chlorobenzyl)-28-(4-hydroxybenzyl)-5,13,20,23,26,29-hexaoxo-4,6,12,19,24,27,30-heptaazatritriacontane-1,3,7-tricarboxylic acid by flow cytometry; assay type: ADME, cell-based

Ki [1]: 0.0026 µM
Drug uptake [2]: Active
Drug uptake [3]: Active
Drug uptake [4]: Active
fold change (FC) [5]: 4.1
inhibition [6]: 95%
inhibition [7]: 35.3%
inhibition [8]: 2.79%
Drug uptake [9]: Active
Drug uptake [10]: Active
Drug excretion [11]: Active
Drug excretion [12]: Active
Activity [13]: 1.5 10^9(p/s)(uW/cm^2)
Activity [14]: 1.5 10^9(p/s)(uW/cm^2)
logD [15]: -1.2
solubility [16]: 7000 µg/mL (≈ 4.05 mM)
Compound: CN1/C(=C/C=C/C=C/C2=[N+](CCCCCC(=O)NCc3cn(CCCNC(=O)[C@H](Cc4ccc(O)cc4)NC(=O)[C@H](Cc4ccccc4)NC(=O)CCC(=O)NCCCCCC(=O)N(CCCC[C@H](NC(=O)N[C@@H](CCC(=O)O)C(=O)O)C(=O)O)Cc4cccc(Cl)c4)nn3)c3ccc(S(=O)(=O)[O-])cc3C2(C)C)C(C)(C)c2cc(S(=O)(=O)O)ccc21
CC50 (LNCaP): > 100 µM
CC50 (PC-3): > 100 µM

Drug uptake [17]: 83.8%
Drug uptake [18]: 14.4%
Drug uptake [19]: 7.6%
Drug uptake [2]: Active
Drug uptake [3]: Active
Drug uptake [20]: Active
Compound: O=C(O)CC[C@H](NC(=O)N[C@@H](CCCCN(Cc1cccc(Cl)c1)C(=O)CCCCCNC(=O)CCC(=O)N[C@@H](Cc1ccccc1)C(=O)N[C@@H](Cc1ccc(O)cc1)C(=O)NCCCn1cc(CNC(=O)c2cccc3c2C(=O)OC32c3ccc(O)cc3Oc3cc(O)ccc32)nn1)C(=O)O)C(=O)O
